Experimental data published in patent publication US20260364181A1, “AKR1C3 Targeted Heterobifunctional Small Molecule Proteolysis Targeting Chimeras” (BOARD OF REGENTS OF THE UNIVERSITY OF NEBRASKA, priority 2022, published 2026).

Key:
AKR1C1/C2 = AKR1C1/C2 protein degradation in 22Rv1 prostate cancer cells (Western blot); type: cell-based
Method: (§1) Protein Expression via Western Blot. 22Rv1 cells were seeded in a 6-well plate and incubated overnight. Next day, the cells were treated with varying concentrations of 6 (1 and 10 μM) and 5 (0.5, 1, 10, 50, 100, 250, and 500 nM; 1, 10, and 50 μM) for 24 hours and 5 (1 and 10 nM) at different time points (0, 2, 4, 6, 12, 16, 24, 48, and 72 h). Whole cell lysates were extracted in RIPA lysis buffer containing protease inhibitor and EDTA (Fisher Scientific, PI78440). Protein concentrations in each sample was estimated following BCA assay (Pierce™ BCA protein assay kit, Fisher Scientific, PI23227) as per the manufacturer's protocol. Proteins were standardized using RIPA lysis buffer with Laemelli SDS sample buffer (Thermo Scientific, AAJ61337AC) and heated at 1000C for 15 minutes. The proteins were resolved on a 4-12% premade gel (Invitrogen, NW04120BOX) at 60-90 V in 20× Bolt™ MES SDS running buffer (Fisher Scientific, B000202) and transferred onto a nitrocellulose membrane (Invitrogen, IB23001) using iBlot 2. The membranes were blocked with 2.5% non-fat dry milk (Bio-Rad, 1706404) for 1 h, and the membrane was incubated overnight on a rocking platform at 4 °C with the desired primary antibodies against AKR1C3 (mouse mAb, 1:200, Sigma, A6229), AKR1C1/C2 (rabbit mAb, 1:500, Abcam, ab179448), ARv7 (rabbit mAb, 1:500, Abcam, ab198394) and actin (mouse mAb, 1:1,000, ThermoFisher, MA5-11869). The membranes were washed three times, 10 minutes each, with 1×Tris-buffered saline (TBST, Bio-Rad, 1706435) in 0.1% Tween 20, on a rocking platform wherein they were incubated with rabbit anti-mouse IgG (ThermoFisher, 31450) or goat anti-rabbit IgG (Jackson ImmunoResearch, 111-035-003) secondary antibody (1:1,000) horseradish peroxidase conjugate for 1 hour. […] Bands were quantified by densitometry using ImageJ software and fold change in AKR1C3, AKR1C1/C2, and ARv7 protein expression was determined based on actin controls. […]

ARv7 = ARv7 protein degradation in 22Rv1 prostate cancer cells (Western blot); type: cell-based
Method: as §1

**Q.** Which results are given for O=C(O)/C=C/c1cc(C(=O)NCc2ccc(OCc3cn(CCOCCOCC(=O)Nc4cccc5c4CN(C4CCC(=O)NC4=O)C5=O)nn3)cc2)cc(-c2ccccc2)c1 (stereo not drawn) [Compound IA, (E)-3-(5-((4-((1-(2-(2-(2-((2-(2,6-dioxopiperidin-3-yl)-1-oxoisoindolin-4-yl)amino)-2-oxoethoxy)ethoxy)ethyl)-1H-1,2,3-triazol-4-yl)methoxy)benzyl)carbamoyl)-[1,1 ? biphenyl]-3-yl)acrylic acid]?
**A.** degradation of AKR1C1/C2 compared with AKR1C3 (AKR1C1/C2; 10 nM, in words): to a lesser extent than AKR1C3; degradation of AKR1C1/C2 (in words) (AKR1C1/C2; 10 nM, time-dependent): trend of degradation of AKR1C1/C2 in a time-dependent manner; DC50 (AKR1C1/C2; 72 hours, read-out: AKR1C1/C2 DC50 (half-maximal degradation concentration)): 49 nM; ARv7 expression after proteasome inhibitor pretreatment (ARv7; 10 nM, 2 hour pretreatment with MG132 (3 μM), in words): not affected; ARv7 expression (ARv7; 10 nM, 72 hours, in words): almost complete amelioration of ARv7 expression; DC50 (ARv7; 72 hours, read-out: ARv7 DC50 (half-maximal degradation concentration)): 70 nM
